Reference: patent US20220073536A1 (Rigel Pharmaceuticals, Inc., priority 2003, published 2022)

Experiments:
[1] = tested on: cultured human mast cells (CHMC); test: CHMC low cell density ionomycin activation: tryptase assay; type: cell-based; conditions: low cell density CHMC, tryptase, 3 pt, read-out: LD Tryptase, CHMC, Iono, 3 pt
[2] = tested on: cultured human mast cells (CHMC); test: CHMC low cell density IgE activation: tryptase assay; type: cell-based; conditions: low cell density CHMC, IgE activation, tryptase
Summary of the method: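 Tryptase release was read from supernatant with a fluorogenic substrate (30 min, room temperature) after anti-IgE challenge of cultured human mast cells (1000–1500 cells/well, low density) for 30 minutes at 37° C.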

[3] = Homo sapiens, Mast cell, 3 pt, read-out: LD Tryptase, CHMC, IgE, 3 pt
[4] = 3 pt, read-out: LD Tryptase, CHMC, IgE, 3 pt
[5] = Homo sapiens, Mast cell, 8 pt, read-out: LD Tryptase, CHMC, IgE, 8 pt
[6] = 8 pt, read-out: LD Tryptase, CHMC, IgE, 8 pt

Row | SMILES | IC50 ([1]; Homo sapiens, Mast cell) [µM] | IC50 [2, 3] [µM] | IC50 [1] [µM] | IC50 [2, 4] [µM] | IC50 [2, 5] [µM] | IC50 [2, 6] [µM]
1 | CC(=O)N1CCN(c2cccc(Nc3ncc(F)c(NC4CCCCC4)n3)c2)CC1 [Compound 1167, N2-[3-(4-Acetylpiperazino)phenyl]-N4-cyclohexyl-5-fluoro-2,4-pyrimidinediamine] | > 10 | < 10 | – | – | – | –
2 | CN1CCN(c2cccc(Nc3ncc(F)c(NC4CCCCC4)n3)c2)CC1 [Compound 1168, N4-Cyclohexyl-5-fluoro-N2-[3-(4-methylpiperazino)phenyl]-2,4-pyrimidinediamine] | > 10 | < 10 | – | – | – | –
3 | CCOC(=O)N1CCN(c2cccc(Nc3ncc(F)c(NC4CCCCC4)n3)c2)CC1 [Compound 1169, N4-Cyclohexyl-N2-[3-(4-ethoxycarbonylpiperazino)phenyl]-5-fluoro-2,4-pyrimidinediamine] | > 10 | < 10 | – | – | – | –
4 | O=C(Nc1ccc(Nc2ncc(F)c(NC3CCCC3)n2)cc1)c1ccccc1 [Compound 1170, N2-(4-Benzamidophenyl)-N4-cyclopentyl-5-fluoro-2,4-pyrimidinediamine] | > 10 | < 10 | – | – | – | –
5 | COc1cc(C(N)=O)c(Nc2ncc(F)c(NC3CCCC3)n2)cc1OCc1ccccc1 [Compound 1171, N2-(2-Aminocarbonyl-5-benzoxy-4-methoxyphenyl)-N4-cyclopentyl-5-fluoro-2,4-pyrimidinediamine] | > 10 | < 10 | – | – | – | –
6 | CC(=O)N(C)c1ccc(Nc2ncc(F)c(NC3CCCC3)n2)cc1 [Compound 1172, N2-[4-(N-Acetyl-N-methylamino)phenyl]-N4-cyclopentyl-5-fluoro-2,4-pyrimidinediamine] | > 10 | < 10 | – | – | – | –
7 | Fc1cnc(Nc2cccc(NC3=NCCN3)c2)nc1NC1CCCC1 [Compound 1173, N4-Cyclopentyl-5-fluoro-N2-[3-(N-2-imidazolin-2-yl)aminophenyl]-2,4-pyrimidinediamine] | > 10 | > 10 | – | – | – | –
8 | COc1cc(C(N)=O)c(Nc2ncc(F)c(NC3CCCCC3)n2)cc1OCc1ccccc1 [Compound 1175, N2-(2-Aminocarbonyl-5-benzoxy-4-methoxyphenyl)-N4-cyclohexyl-5-fluoro-2,4-pyrimidinediamine] | > 10 | < 10 | – | – | – | –
9 | CC(=O)N(C)c1ccc(Nc2ncc(F)c(NC3CCCCC3)n2)cc1 [Compound 1176, N2-[4-(N-Acetyl-N-methylamino)phenyl]-N4-cyclohexyl-5-fluoro-2,4-pyrimidinediamine] | > 10 | < 10 | – | – | – | –
10 | Fc1cnc(Nc2cccc(NC3=NCCN3)c2)nc1NC1CCCCC1 [Compound 1177] | > 10 | > 10 | – | – | – | –
11 | Fc1cnc(Nc2cccc(-c3ncco3)c2)nc1Nc1cccc(-c2ncco2)c1 [Compound 1178, N2,N4-Bis[3-(oxazol-2-yl)phenyl]-5-fluoro-2,4-pyrimidinediamine] | > 10 | > 10 | – | – | – | –
12 | CN(c1nc(Nc2cccc(-c3ncco3)c2)ncc1F)C1CCC1 [Compound 1179, N4-Cyclobutyl-5-fluoro-N4-methyl-N2-[3-(oxazol-2-yl)phenyl]-2,4-pyrimidinediamine] | > 10 | < 10 | – | – | – | –
13 | Fc1cnc(Nc2ccc(N3CCOCC3)cc2)nc1N[C@H]1CCN(Cc2ccccc2)C1 [Compound 1180, (S)-N4-(1 -Benzylpyrrolidin-3-yl)-5-fluoro-N2-(4-morpholinophenyl)-2,4-pyrimidinediamine] | > 10 | < 10 | – | – | – | –
14 | CC(=O)N1CCN(c2ccc(Nc3ncc(F)c(N[C@H]4CCN(Cc5ccccc5)C4)n3)cc2)CC1 [Compound 1181, (S)-N2-[4-(4-Acetylpiperazino)phenyl]-N4-(1-benzylpyrrolidin-3-yl)-5-fluoro-2,4-pyrimidinediamine] | > 10 | < 10 | – | – | – | –
15 | CN1CCN(c2ccc(Nc3ncc(F)c(N[C@H]4CCN(Cc5ccccc5)C4)n3)cc2)CC1 [Compound 1182] | > 10 | > 10 | – | – | – | –
16 | CCOC(=O)N1CCN(c2ccc(Nc3ncc(F)c(N[C@H]4CCN(Cc5ccccc5)C4)n3)cc2)CC1 [Compound 1183, (S)-N4-(1-Benzylpyrrolidin-3-yl)-N2-[4-(4-ethoxycarbonylpiperazino)phenyl]-5-fluoro-2,4-pyrimidinediamine] | > 10 | < 10 | – | – | – | –
17 | Fc1cnc(Nc2cccc(N3CCOCC3)c2)nc1N[C@H]1CCN(Cc2ccccc2)C1 [Compound 1184] | > 10 | < 10 | – | – | – | –

Row | SMILES | IC50 ([1]; Homo sapiens, Mast cell) [µM] | IC50 [2, 3] [µM] | IC50 [1] [µM] | IC50 [2, 4] [µM] | IC50 [2, 5] [µM] | IC50 [2, 6] [µM]
18 | CC(=O)N1CCN(c2cccc(Nc3ncc(F)c(N[C@H]4CCN(Cc5ccccc5)C4)n3)c2)CC1 [Compound 1185, (S)-N2-[3-(4-Acetylpiperazino)phenyl]-N4-(benzylpyrrolidin-3-yl)-5-fluoro-2,4-pyrimidinediamine] | – | – | > 10 | < 10 | – | –
19 | CN1CCN(c2cccc(Nc3ncc(F)c(N[C@H]4CCN(Cc5ccccc5)C4)n3)c2)CC1 [Compound 1186] | > 10 | < 10 | – | – | – | –
20 | CCOC(=O)N1CCN(c2cccc(Nc3ncc(F)c(N[C@H]4CCN(Cc5ccccc5)C4)n3)c2)CC1 [Compound 1187, (S)-N4-(1-Benzylpyrrolidin-3-yl)-N2-[3-(4-ethoxycarbonylpiperazino)phenyl]-5-fluoro-2,4-pyrimidinediamine] | > 10 | < 10 | – | – | – | –
21 | CC1(C)Oc2ccc(Nc3nc(Nc4cccc(-c5ncco5)c4)ncc3F)cc2NC1=O [Compound 1281] | > 10 | < 10 | – | – | < 10 | –
22 | C[C@@H]1Oc2ccc(Nc3nc(Nc4cccc(-c5ncco5)c4)ncc3F)cc2NC1=O [Compound 1282] | > 10 | < 10 | – | – | < 10 | –
23 | C[C@H]1Oc2ccc(Nc3nc(Nc4cccc(-c5ncco5)c4)ncc3F)cc2NC1=O [Compound 1283] | > 10 | < 10 | – | – | < 10 | –
24 | O=C1Nc2cc(Nc3nc(Nc4cccc(-c5ncco5)c4)ncc3F)ccc2OC1(F)F [Compound 1284] | > 10 | < 10 | – | – | < 10 | –
25 | NC1CCOc2ccc(Nc3nc(Nc4cccc(-c5ncco5)c4)ncc3F)cc21 (centres unmarked) [Compound 1285] | > 10 | < 10 | – | – | < 10 | –
26 | CC(C)(C)OC(=O)NC1CCOc2ccc(Nc3nc(Nc4cccc(-c5cnco5)c4)ncc3F)cc21 (centres unmarked) [Compound 1287, N4-(4-N-tert-Butoxycarbonylamino-3,4-dihydro-2H-1-benzopyran-6-yl)-5-fluoro-N2-[3-(oxazol-5-yl)phenyl]-2,4-pyrimidinediamine] | – | – | > 10 | < 10 | – | –
27 | CC(C)(C)OC(=O)NC1CCOc2ccc(Nc3nc(Nc4ccc(-c5cnco5)cc4)ncc3F)cc21 (centres unmarked) [Compound 1288, N4-(4-N-tert-Butoxycarbonylamino-3,4-dihydro-2H-1-benzopyran-6-yl)-5-fluoro-N2-[4-(oxazol-5-yl)phenyl]-2,4-pyrimidinediamine] | – | – | < 10 | < 10 | – | < 10
28 | CC(C)(C)OC(=O)NC1CCOc2ccc(Nc3nc(Nc4ccc(-c5ncco5)cc4)ncc3F)cc21 (centres unmarked) [Compound 1289, N4-(4-N-tert-Butoxycarbonylamino-3,4-dihydro-2H-1-benzopyran-6-yl)-5-fluoro-N2-[4-(oxazol-2-yl)phenyl]-2,4-pyrimidinediamine] | – | – | < 10 | < 10 | – | –
29 | OC1CCOc2ccc(Nc3nc(Nc4ccc(-c5ncco5)cc4)ncc3F)cc21 (centres unmarked) [Compound 1291, 5-Fluoro-N4-(4-hydroxy-3,4-dihydro-2H-1-benzopyran-6-yl)-N2-[4-(oxazol-2-yl)phenyl]-2,4-pyrimidinediamine] | > 10 | < 10 | – | – | < 10 | –
30 | CNC(=O)CNC(=O)c1ccc(Nc2ncc(F)c(Nc3ccc4c(c3)NC(=O)C(C)(C)O4)n2)cc1 [Compound 1295, N4-(2,2-Dimethyl-3-oxo-4H-benz[1,4]oxazin-6-yl)-5-fluoro-N2-[4-[N-(N-methylamino)carbonylmethylene]aminocarbonylphenyl]-2,4-pyrimidinediamine] | – | – | > 10 | < 10 | – | < 10
31 | CNC(=O)CNC(=O)c1ccc(Nc2ncc(F)c(Nc3ccc4c(c3)NC(=O)[C@H](C)O4)n2)cc1 [Compound 1296, (S)-5-Fluoro-N2-[4-[N-(N-methylamino)carbonylmethylene]aminocarbonylphenyl]-N4-(2-methyl-3-oxo-2H,4H-benz[1,4]oxazin-6-yl)-2,4-pyrimidinediamine] | – | – | > 10 | < 10 | – | < 10
32 | CNC(=O)CNC(=O)c1ccc(Nc2ncc(F)c(Nc3ccc(Cl)c(Cl)c3)n2)cc1 [Compound 1300, N4-(3,4-Dichlorophenyl)-5-fluoro-N2-[4-[N-(N-methylamino)carbonylmethylene]aminocarbonylphenyl]-2,4-pyrimidinediamine] | – | – | > 10 | < 10 | – | < 10
33 | CNC(=O)CNC(=O)c1ccc(Nc2ncc(F)c(N(C)c3ccc(Cl)c(Cl)c3)n2)cc1 [Compound 1301, N4-(3,4-Dichlorophenyl)-5-fluoro-N4-methyl-N2-[4-[N-(N-methylamino)carbonylmethylene]aminocarbonylphenyl]-2,4-pyrimidinediamine] | – | – | > 10 | < 10 | – | < 10
34 | COC(=O)CCNC(=O)c1ccc(Nc2ncc(F)c(Nc3ccc4c(c3)NC(=O)C(C)(C)O4)n2)cc1 [Compound 1302, N4-(2,2-Dimethyl-3-oxo-4H-benz[1,4]oxazin-6-yl)-5-fluoro-N2-[4-[N-(2-methoxycarbonylethyl)aminocarbonyl]phenyl]-2,4-pyrimidinediamine] | < 10 | < 10 | – | – | < 10 | –
